Experimental data from ChEMBL document CHEMBL1201862, “PubChem BioAssay data set” (2004).
Activity calls are given as the source filed them.

Columns and labels:
[1] = viability of PTEN-deleted HCT116 cells – cell-based, HCT116 PTEN knockout, dose response (AID 1047); type: functional;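 further: HCT116 colon tumor cells with PTEN knocked out; cells exposed to compound for 60 hours before readout; potency for loss of cell viability measured by luminescence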
[2] = viability of HCT116 lacking mutant beta-catenin – cell-based, human colon tumor, dose response (AID 1045); type: functional;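 further: HCT116 colon tumor cells with beta catenin knocked out; cells exposed to compound for 60 hours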
Fatty acid synthase [3] = molecular target: T1, Fatty acid synthase (Homo sapiens, UniProt P49327); assay: inhibition of human FAS-TE enzyme activity – biochemical, endpoint fluorescence intensity, uHTS hits, dose response (AID 624327); type: functional;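 further: fluorescence from hydrolysis of an O-methyl fluorescein acyl ester substrate by the enzyme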
Fatty acid synthase [4] = molecular target: T1, Fatty acid synthase; assay: inhibition of human FAS-TE enzyme activity – biochemical, kinetic fluorescence intensity, dose response (AID 624326); type: functional;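 further: rate of fluorescence rise from hydrolysis of a fluorogenic O-methyl fluorescein ester substrate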
HEK293 = assay: EBV LMP1 TES2 canonical NF-kB signalling blockers – cell-based, HEK293, luciferase, cherry-pick, dose response (AID 588343); type: functional; settings: Homo sapiens
[5] = molecular target: Glyceraldehyde-3-phosphate dehydrogenase (Homo sapiens, UniProt P04406)
[6] = molecular target: Peroxisome proliferator-activated receptor gamma/Nuclear receptor coactivator 2 (Homo sapiens, UniProt P37231); type: functional;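 further: agonist potency for raising coactivator recruitment to the receptor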
[7] = molecular target: Peroxisome proliferator-activated receptor gamma/Nuclear receptor coactivator 1 (Homo sapiens, UniProt P37231); type: functional;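 further: agonist potency as compounds enhance coactivator SRC-1 recruitment to PPARgamma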
[8] = molecular target: Peroxisome proliferator-activated receptor gamma/Nuclear receptor coactivator 3 (Homo sapiens, UniProt P37231); type: functional;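 further: agonist potency for raising coactivator recruitment to the receptor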
[9] = NIH-3T3 fibroblast cytotoxicity, dose response, cytotoxicity control, cell-based, fluorescence, Alamar Blue, secondary assay (AID 2327); type: functional;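 further: NIH-3T3 mouse fibroblasts cultured with fluconazole at 8 µg/mL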
[10] = fluconazole-exposed Candida albicans growth modulators – fluorescence, retest, confirmation (AID 2467); type: functional, cell-based
Nonstructural protein 1 = Nonstructural protein 1 (Influenza A virus, UniProt Q194T2); type: functional, Influenza A virus (A/California/07/2009(H1N1))
[11] = molecular target: T2, Microphthalmia-associated transcription factor (Homo sapiens, UniProt O75030); assay: reducers of TRPM1 reporter luminescence, concentration series – cell-based, SK-MEL-5, cherry-picked, set 3, MITF inhibitor project, dose response (AID 493073); type: functional;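 further: SK-MEL-5 melanoma cells with luciferase driven by the MITF target TRPM1 promoter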
T2 sequence (O75030 whole entry): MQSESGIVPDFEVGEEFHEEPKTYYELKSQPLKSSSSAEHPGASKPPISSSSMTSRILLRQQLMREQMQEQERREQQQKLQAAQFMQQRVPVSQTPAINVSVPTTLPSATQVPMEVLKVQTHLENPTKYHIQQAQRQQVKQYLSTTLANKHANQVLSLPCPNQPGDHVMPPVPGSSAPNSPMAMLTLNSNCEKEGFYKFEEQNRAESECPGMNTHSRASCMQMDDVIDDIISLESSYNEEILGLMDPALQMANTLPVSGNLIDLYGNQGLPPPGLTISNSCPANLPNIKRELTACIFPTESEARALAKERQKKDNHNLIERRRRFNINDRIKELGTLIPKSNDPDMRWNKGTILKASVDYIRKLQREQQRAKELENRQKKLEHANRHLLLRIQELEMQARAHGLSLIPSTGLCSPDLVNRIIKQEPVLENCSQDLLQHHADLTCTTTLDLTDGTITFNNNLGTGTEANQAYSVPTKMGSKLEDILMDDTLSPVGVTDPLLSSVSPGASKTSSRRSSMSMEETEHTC

INS1 = assay: INS-1E survival protection against cytokine death – cell-based, luminescence, retest, dose response (AID 449756); type: functional; settings: Rattus norvegicus;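 further: cell death triggered by IL-1 beta plus TNF-alpha plus IFN-gamma mixture; protective hits raise ATP signal compared with cytokine alone wells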
[12] = molecular target: T3, Heat shock factor protein 1 (Mus musculus, UniProt P38532); assay: enhancement of HSF1-driven luciferase signal – cell-based, NIH3T3, luminescence, dose retest, confirmation (AID 435004); type: functional;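 further: stress induced by proteasome inhibitor MG132 added 30 min after compound; luciferase reporter driven by HSF1 response element in NIH3T3 cells; actives raise luminescence as potentiators of the MG132 stress response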
T3 sequence (P38532 whole entry): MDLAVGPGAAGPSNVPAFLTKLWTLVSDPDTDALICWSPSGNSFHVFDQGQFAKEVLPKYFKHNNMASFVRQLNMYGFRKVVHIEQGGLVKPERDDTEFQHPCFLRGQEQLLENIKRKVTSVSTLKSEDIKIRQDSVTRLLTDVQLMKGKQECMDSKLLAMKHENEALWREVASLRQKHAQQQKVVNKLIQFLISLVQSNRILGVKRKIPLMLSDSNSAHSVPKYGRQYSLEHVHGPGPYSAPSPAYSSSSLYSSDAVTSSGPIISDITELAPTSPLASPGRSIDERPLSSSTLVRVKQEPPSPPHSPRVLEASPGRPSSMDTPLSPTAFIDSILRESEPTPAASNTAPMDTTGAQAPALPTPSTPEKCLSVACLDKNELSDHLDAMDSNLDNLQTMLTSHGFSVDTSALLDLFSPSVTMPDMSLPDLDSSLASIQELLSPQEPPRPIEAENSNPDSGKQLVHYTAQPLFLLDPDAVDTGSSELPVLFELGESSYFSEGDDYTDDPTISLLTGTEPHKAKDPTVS

[13] = molecular target: T4, Histone-lysine N-methyltransferase NSD2 (Homo sapiens, UniProt O96028); type: biochemical
T4 sequence (O96028 whole entry): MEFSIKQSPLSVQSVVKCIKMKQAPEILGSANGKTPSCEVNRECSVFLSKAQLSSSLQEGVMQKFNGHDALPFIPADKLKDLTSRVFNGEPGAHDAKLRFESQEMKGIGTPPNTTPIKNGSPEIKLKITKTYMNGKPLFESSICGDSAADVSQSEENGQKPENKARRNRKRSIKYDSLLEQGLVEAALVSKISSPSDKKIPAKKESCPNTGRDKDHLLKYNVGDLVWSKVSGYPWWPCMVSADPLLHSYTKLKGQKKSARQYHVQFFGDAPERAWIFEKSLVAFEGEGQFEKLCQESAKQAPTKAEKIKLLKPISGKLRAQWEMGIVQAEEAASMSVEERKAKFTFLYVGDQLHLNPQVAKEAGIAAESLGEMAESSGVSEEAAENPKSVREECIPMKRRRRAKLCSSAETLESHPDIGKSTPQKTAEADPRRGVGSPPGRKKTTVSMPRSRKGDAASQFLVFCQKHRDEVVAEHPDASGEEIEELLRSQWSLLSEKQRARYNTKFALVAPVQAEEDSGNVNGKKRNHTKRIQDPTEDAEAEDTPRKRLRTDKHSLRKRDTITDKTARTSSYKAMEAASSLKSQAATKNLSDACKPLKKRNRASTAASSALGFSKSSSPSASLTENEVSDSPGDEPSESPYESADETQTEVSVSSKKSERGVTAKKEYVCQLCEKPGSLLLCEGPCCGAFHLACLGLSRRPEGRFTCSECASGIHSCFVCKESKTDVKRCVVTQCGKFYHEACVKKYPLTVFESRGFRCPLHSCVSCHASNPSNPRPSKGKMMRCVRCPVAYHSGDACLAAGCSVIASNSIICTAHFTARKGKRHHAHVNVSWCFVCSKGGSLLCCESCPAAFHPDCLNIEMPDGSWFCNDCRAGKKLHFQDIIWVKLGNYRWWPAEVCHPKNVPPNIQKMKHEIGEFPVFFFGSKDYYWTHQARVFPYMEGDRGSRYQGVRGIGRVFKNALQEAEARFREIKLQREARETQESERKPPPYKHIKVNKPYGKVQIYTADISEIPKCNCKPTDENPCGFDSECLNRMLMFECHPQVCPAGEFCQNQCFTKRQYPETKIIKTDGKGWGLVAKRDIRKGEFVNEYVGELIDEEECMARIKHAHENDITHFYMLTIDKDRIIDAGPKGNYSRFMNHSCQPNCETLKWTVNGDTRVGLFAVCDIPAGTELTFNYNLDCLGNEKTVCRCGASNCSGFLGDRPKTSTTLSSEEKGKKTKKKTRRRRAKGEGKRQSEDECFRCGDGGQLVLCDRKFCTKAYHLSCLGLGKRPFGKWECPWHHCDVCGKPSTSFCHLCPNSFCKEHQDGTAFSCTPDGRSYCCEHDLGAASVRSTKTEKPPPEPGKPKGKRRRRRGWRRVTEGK

[14] = molecular target: T5, Ubiquitin-conjugating enzyme E2 N (Homo sapiens, UniProt P61088); type: functional;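 further: Dose-response confirmation in a TR-FRET assay detecting UBC13-driven polyubiquitin chain formation, inhibition measured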
T5 sequence (P61088 whole entry): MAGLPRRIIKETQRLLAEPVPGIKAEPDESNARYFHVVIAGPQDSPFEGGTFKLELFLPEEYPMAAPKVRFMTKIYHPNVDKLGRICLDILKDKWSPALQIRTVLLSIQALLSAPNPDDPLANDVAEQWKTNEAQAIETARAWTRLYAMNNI

[15] = Trypanosoma cruzi growth suppression in host cells – NIH3T3 host cells, beta-gal luminescence, confirmation (AID 2044); type: functional, cell-based;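 further: intracellular parasites grown in NIH/3T3 mouse fibroblasts as host cells; luminescent beta-galactosidase reporter signal from transgenic T. cruzi replicating inside host cells; inhibitors lower the luminescence signal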
[16] = NIH3T3 cell viability loss – ATP luminescence, mouse fibroblasts, counter-screen, dose response (AID 2010); type: functional, cell-based;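 further: cells exposed to compound for about 90 hours before reading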
P388/ADR = assay: cells; type: functional; settings: Mus musculus
SN12K1 = assay: cells; type: functional; settings: Homo sapiens
P388 = assay: cells; type: functional; settings: Mus musculus

T1 sequence (P49327 whole entry): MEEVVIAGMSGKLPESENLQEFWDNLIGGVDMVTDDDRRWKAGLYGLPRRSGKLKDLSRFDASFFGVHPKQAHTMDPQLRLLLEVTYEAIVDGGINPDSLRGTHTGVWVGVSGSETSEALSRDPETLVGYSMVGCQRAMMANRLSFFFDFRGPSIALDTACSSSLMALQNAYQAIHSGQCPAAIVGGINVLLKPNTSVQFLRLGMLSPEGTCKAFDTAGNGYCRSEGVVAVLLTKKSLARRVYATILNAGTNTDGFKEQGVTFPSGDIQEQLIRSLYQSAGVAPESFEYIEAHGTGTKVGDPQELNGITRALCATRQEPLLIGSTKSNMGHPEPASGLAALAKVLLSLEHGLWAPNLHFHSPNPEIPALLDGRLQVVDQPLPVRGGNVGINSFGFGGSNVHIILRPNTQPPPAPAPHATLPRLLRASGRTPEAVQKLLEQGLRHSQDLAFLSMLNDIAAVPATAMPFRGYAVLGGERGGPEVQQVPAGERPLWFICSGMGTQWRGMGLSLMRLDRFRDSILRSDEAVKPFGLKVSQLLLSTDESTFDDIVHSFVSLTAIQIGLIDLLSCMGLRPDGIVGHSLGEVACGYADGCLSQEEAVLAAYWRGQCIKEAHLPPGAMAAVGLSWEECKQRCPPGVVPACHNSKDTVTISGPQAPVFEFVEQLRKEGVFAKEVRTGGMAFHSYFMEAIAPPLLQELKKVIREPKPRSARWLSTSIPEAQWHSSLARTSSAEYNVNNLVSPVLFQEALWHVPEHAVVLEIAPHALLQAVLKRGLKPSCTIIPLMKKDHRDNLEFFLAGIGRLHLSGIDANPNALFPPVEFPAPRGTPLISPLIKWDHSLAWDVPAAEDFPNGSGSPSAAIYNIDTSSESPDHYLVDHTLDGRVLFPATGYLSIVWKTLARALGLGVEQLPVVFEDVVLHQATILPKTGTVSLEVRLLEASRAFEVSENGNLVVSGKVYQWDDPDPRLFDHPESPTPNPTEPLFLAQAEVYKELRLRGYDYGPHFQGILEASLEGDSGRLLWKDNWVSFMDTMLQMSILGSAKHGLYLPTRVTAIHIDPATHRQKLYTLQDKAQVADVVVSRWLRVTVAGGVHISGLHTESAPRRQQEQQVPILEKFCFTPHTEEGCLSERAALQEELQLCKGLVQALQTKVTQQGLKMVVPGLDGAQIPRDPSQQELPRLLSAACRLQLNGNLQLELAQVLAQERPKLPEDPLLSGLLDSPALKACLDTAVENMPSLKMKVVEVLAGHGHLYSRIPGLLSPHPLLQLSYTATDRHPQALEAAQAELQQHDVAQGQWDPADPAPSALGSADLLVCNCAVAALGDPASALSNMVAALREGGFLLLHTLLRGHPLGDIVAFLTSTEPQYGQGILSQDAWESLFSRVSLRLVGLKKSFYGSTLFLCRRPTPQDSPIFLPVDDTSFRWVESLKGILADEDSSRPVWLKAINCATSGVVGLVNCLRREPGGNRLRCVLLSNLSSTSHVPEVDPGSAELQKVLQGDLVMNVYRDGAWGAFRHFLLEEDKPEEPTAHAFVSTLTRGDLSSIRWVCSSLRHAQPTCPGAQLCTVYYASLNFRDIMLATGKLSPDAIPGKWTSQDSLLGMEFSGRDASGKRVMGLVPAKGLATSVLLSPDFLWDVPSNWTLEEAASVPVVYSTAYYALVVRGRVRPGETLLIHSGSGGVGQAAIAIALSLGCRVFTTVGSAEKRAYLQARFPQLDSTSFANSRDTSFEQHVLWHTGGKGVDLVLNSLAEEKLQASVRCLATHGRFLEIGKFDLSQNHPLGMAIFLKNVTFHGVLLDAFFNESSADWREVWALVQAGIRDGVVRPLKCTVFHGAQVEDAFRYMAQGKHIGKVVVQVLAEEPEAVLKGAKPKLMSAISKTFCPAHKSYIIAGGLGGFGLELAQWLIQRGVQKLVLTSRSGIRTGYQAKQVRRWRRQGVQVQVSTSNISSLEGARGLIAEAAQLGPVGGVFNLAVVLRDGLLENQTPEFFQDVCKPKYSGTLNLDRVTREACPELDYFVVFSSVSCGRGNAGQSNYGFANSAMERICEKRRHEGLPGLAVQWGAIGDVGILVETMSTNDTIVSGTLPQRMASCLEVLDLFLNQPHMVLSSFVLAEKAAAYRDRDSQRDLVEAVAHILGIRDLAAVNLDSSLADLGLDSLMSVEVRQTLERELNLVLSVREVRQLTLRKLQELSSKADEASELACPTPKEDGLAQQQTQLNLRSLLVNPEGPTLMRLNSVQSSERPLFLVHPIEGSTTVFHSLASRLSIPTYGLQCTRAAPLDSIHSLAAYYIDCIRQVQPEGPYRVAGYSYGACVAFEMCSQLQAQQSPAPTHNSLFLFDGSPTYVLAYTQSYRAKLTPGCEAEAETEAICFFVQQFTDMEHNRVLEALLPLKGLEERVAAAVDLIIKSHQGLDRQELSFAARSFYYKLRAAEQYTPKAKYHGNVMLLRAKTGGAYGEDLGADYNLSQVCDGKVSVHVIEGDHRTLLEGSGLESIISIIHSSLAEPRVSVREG
Sequence of Peroxisome proliferator-activated receptor gamma/Nuclear receptor coactivator 3 (P37231 whole entry): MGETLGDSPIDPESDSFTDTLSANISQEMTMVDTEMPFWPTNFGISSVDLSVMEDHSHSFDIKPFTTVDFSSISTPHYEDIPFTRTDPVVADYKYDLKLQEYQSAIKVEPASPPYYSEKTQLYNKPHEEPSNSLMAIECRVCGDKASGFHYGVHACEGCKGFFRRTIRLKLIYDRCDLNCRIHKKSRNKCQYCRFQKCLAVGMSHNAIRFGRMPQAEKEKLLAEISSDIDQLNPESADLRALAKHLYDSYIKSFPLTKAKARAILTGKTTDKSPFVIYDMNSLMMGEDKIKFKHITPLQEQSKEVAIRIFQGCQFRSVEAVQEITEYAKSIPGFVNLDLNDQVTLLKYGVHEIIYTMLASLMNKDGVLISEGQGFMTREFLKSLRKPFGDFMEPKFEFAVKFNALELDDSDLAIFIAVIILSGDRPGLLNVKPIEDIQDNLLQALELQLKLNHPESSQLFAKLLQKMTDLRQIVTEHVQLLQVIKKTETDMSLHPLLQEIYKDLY
Sequence of Peroxisome proliferator-activated receptor gamma/Nuclear receptor coactivator 3 (Q9Y6Q9 whole entry, further chain): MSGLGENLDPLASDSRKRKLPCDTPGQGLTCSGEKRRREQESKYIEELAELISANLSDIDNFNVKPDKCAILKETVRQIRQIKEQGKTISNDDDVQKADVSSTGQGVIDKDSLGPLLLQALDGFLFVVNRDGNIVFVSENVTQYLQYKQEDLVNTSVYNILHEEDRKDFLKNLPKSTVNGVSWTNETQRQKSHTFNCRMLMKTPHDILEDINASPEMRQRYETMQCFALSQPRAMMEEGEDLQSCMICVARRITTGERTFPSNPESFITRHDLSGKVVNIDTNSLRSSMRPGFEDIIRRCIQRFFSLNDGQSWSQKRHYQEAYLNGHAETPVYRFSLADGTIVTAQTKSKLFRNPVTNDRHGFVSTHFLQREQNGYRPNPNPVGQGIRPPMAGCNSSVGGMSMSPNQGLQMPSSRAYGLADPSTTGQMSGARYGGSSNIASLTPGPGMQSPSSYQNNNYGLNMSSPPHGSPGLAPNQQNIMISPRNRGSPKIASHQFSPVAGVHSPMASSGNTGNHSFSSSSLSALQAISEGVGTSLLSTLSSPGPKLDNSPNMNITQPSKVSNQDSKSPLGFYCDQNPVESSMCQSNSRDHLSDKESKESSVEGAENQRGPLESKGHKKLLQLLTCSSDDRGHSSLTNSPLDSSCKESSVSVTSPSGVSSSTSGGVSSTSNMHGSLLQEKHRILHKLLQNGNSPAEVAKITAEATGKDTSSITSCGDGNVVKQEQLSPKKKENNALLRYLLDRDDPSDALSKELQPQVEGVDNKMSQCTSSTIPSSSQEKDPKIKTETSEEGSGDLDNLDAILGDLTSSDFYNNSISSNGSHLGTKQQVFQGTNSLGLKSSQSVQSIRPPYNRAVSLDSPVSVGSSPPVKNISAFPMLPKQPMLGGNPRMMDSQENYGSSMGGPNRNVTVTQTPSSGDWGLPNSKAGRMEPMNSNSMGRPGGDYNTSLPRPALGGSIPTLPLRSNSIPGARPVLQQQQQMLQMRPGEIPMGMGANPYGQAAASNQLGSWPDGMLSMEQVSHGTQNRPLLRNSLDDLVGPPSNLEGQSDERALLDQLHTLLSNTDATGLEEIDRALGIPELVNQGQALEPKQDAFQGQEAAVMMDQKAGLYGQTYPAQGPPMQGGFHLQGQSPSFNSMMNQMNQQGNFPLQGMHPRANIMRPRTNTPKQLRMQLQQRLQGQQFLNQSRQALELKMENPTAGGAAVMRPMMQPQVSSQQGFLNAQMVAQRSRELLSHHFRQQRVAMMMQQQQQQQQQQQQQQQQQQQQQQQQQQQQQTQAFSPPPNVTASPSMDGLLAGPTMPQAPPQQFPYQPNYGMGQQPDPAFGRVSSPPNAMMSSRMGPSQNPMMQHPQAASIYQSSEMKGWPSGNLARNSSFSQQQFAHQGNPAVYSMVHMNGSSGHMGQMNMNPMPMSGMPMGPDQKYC
Sequence of Glyceraldehyde-3-phosphate dehydrogenase (P04406 whole entry): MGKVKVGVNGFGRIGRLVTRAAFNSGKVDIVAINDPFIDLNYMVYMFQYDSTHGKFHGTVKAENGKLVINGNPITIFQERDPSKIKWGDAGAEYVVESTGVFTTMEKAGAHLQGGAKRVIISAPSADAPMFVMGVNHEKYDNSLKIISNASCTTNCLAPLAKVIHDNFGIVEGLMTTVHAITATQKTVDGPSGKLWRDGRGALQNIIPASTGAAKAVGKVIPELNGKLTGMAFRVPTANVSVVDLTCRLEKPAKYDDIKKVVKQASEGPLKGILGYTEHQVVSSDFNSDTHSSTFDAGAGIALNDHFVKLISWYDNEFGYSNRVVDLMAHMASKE
Sequence of Nonstructural protein 1 (Q194T2 whole entry): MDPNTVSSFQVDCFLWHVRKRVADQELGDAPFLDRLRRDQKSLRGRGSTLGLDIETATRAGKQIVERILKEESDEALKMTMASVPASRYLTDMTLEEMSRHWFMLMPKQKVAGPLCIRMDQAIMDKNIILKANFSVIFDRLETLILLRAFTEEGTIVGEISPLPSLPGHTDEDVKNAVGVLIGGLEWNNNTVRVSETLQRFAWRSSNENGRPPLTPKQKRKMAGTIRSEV

Cc1ccc([N+](=O)[O-])cc1NC(=O)CN(C(=O)c1ccc(Cl)cc1)C1CCCCC1
EC50 [1]: 43.7 µM (active)
EC50 [2]: 209 µM (active)
IC50 (Fatty acid synthase [3]): 1.18 µM (active)
IC50 (Fatty acid synthase [4]): 1.24 µM (active)

O=C(NCCOc1ccccc1)c1ccc2c(c1)OCO2
AC50 (HEK293): 1.62 µM (active)

O=C(O)c1cc(NS(=O)(=O)c2cc([N+](=O)[O-])ccc2Cl)ccc1O
IC50 [5]: > 100 µM (not active)

CC[C@]1(c2cccc(C)c2)C(=O)N(C(=O)OC)N1C(=O)OC
IC50 (Fatty acid synthase [3]): 9.04 µM (active)
IC50 (Fatty acid synthase [4]): 8.6 µM (active)

CC(C)(C)SCCNC(=O)/C=C/c1cccc([N+](=O)[O-])c1
IC50 (Fatty acid synthase [3]): 4.09 µM (active)
IC50 (Fatty acid synthase [4]): 6.29 µM (active)

Cc1n[nH]c(C)c1S(=O)(=O)N(CC(=O)Nc1ccc2c(c1)OCCO2)c1ccc(C(C)C)cc1
EC50 [6]: > 79.4 µM (not active)
EC50 [7]: > 79.4 µM (not active)
EC50 [8]: > 79.4 µM (not active)

CCN(CC)S(=O)(=O)c1cccc(NC(=O)COC(=O)c2nnc(O)c3ccccc23)c1
EC50 [6]: > 79.4 µM (not active)
EC50 [7]: > 79.4 µM (not active)
EC50 [8]: > 79.4 µM (not active)

CC(=O)Nc1ccc(NC(=O)c2ccccc2S(=O)(=O)c2ccc([N+](=O)[O-])cc2)cc1
IC50 (Fatty acid synthase [3]): 13.8 µM (active)
IC50 (Fatty acid synthase [4]): 15.9 µM (active)

O=C(c1cnc(-c2ccc(Cl)cc2)s1)c1ccc(Cl)cc1Cl
EC50 [6]: 18.7 µM (not active)
EC50 [7]: 30.8 µM (not active)
EC50 [8]: 38.7 µM (not active)

COc1cc(C(=O)Oc2c(CN3CCOCC3)cc(Cl)c3cccnc23)cc(OC)c1OC
EC50 [9]: > 160 µM (inactive)
EC50 [10]: 4.15 µM (active)
EC50 [1]: 2.71 µM (active)
EC50 [2]: 2.31 µM (active)
IC50 (Nonstructural protein 1): 19.9 µM (active)
AC50 [11]: 7.55 µM (active)
AC50 (INS1): 4.28 µM (active)

O=C(NCCCCc1ccccc1)C1CC(c2cccc([N+](=O)[O-])c2)=NO1 (stereo not drawn)
IC50 (Fatty acid synthase [3]): 3.11 µM (active)
IC50 (Fatty acid synthase [4]): 4.27 µM (active)

CSc1ccccc1C(=O)N1CCC2(CC1)CC(=O)c1ccccc1O2
AC50 (HEK293): 22.5 µM (active)

COC(=O)c1ccc(C(=O)OC)c(NC(=O)C(C)(C)C)c1
EC50 [6]: > 79.4 µM (not active)
EC50 [7]: > 79.4 µM (not active)
EC50 [8]: > 79.4 µM (not active)
EC50 [12]: > 260 µM (inactive)

CCN1CC2CCCC3(C1)C(=O)NC1(CCCCC1)N=C23 (stereo not drawn)
AC50 [13]: 15 µM (active)

COC(=O)c1c(NC(=O)C(=O)N2CCCC2)sc2c1CC(C)(C)OC2
IC50 [14]: > 20 µM (inactive)

NCCc1c(-c2ccccc2)n(-c2ccccc2)c2ccccc12
EC50 [15]: 2.47 µM (active)
EC50 [16]: > 60 µM (inconclusive)
AC50 [13]: > 20 µM (inactive)

Cc1c2ccncc2cc2c1[nH]c1ccccc12
GI50 (P388/ADR): 2.93 µM (inactive)
GI50 (SN12K1): 3.72 µM (inactive)
GI50 (P388): 1.61 µM (inactive)

CCOc1ccc(/C=N/Nc2cc(N3CCOCC3)ncn2)c(O)c1
AC50 (HEK293): 15.5 µM (active)

Cc1c2ccnc(C(N)=O)c2c(C)c2c1[nH]c1ccccc12
GI50 (P388/ADR): 12.9 µM (inactive)
GI50 (SN12K1): 5.46 µM (inactive)
GI50 (P388): 2.9 µM (inactive)

CCCCCCCCCCCCCCCCCCOCC(COCCOCC[N+]1(CCCCCC(=O)[O-])CCCC1)Oc1ncccn1 (stereo not drawn)
GI50 (P388/ADR): 11.2 µM (inactive)
GI50 (SN12K1): 4.12 µM (inactive)
GI50 (P388): 0.288 µM (active)

COC1OC(=O)[C@H]2O[N+]([O-])=C(C)[C@@H]12 (stereo partly drawn)
GI50 (P388/ADR): > 100 µM (inactive)
GI50 (SN12K1): > 100 µM (inactive)
GI50 (P388): > 100 µM (inactive)

NC1CCCCC1.O=P(O)(O)C(CSc1ccccc1)P(=O)(O)O
GI50 (P388/ADR): > 100 µM (inactive)
GI50 (SN12K1): > 100 µM (inactive)
GI50 (P388): > 100 µM (inactive)

COc1ccc(C2COc3cc(O)c(O)cc3C2)cc1 (stereo not drawn)
GI50 (P388/ADR): 1.19 µM (inactive)
GI50 (SN12K1): 13.8 µM (inactive)
GI50 (P388): 1.67 µM (inactive)

CC(C)(C)OC(=O)[C@H](CCCCN)NC(=O)c1[nH]cnc1C(=O)N[C@@H](Cc1ccccc1)C(=O)OCc1ccccc1
IC50 [14]: > 20 µM (inactive)

CCn1c2ccccc2c2cc(/C=N/NC(=O)c3ccncc3)ccc21
AC50 (HEK293): 1.46 µM (active)

COc1cc([N+](=O)[O-])ccc1S(=O)(=O)Nc1cccnc1
IC50 [5]: > 100 µM (not active)

CCCCOc1ccc(NC2=NC3(CCCC3)N=C(N)N2)cc1
EC50 [6]: > 79.4 µM (not active)
EC50 [7]: > 79.4 µM (not active)
EC50 [8]: > 79.4 µM (not active)

C/C(=C\COc1ccc2ccc(=O)oc2c1)C1=CC(=O)C(C)(C)O1 [GEIPARVARIN]
GI50 (P388/ADR): 1.44 µM (inactive)
GI50 (SN12K1): 3.76 µM (inactive)
GI50 (P388): 1.9 µM (inactive)
